Assay results as given in ChEMBL document CHEMBL3351479, “Novel acylureidoindolin-2-one derivatives as dual Aurora B/FLT3 inhibitors for the treatment of acute myeloid leukemia” (Eur J Med Chem, 2014).

Tests used:
[1] = target: T1, Receptor-type tyrosine-protein kinase FLT3 (Homo sapiens, UniProt P36888); assay: Inhibition of FLT3 (unknown origin) using EAIYAAPFAKKK substrate
T1 sequence (P36888 whole entry): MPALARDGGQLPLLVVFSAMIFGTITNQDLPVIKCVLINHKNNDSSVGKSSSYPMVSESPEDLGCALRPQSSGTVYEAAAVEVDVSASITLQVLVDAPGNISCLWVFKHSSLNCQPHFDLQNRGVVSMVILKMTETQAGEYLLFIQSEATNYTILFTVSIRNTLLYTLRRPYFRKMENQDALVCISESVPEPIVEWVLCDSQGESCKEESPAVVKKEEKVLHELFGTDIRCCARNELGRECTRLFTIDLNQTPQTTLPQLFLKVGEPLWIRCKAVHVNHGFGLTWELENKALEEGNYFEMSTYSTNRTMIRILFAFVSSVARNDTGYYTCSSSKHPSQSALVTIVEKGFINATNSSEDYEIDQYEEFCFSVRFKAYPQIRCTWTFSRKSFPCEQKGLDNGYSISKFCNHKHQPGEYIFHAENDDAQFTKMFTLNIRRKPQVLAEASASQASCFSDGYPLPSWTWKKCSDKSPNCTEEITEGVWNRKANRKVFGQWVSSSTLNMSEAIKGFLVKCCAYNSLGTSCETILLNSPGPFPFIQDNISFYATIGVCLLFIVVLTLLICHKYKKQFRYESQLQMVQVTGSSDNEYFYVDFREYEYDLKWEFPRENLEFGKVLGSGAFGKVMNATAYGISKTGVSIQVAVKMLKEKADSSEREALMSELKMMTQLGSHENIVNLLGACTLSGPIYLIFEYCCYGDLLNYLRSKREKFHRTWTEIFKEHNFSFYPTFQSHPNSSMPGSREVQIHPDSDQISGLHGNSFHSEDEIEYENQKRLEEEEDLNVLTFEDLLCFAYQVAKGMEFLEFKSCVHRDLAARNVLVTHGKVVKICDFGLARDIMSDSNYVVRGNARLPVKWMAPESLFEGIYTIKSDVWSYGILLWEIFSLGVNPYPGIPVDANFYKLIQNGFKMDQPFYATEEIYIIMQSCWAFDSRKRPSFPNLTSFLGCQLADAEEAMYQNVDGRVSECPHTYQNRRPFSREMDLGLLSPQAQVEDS

MOLM-13 [2] = assay: Cytotoxicity against human MOLM13 cells assessed as cell viability after 48 hrs by MTT assay; assay type: functional, cell-based; conditions: MOLM-13, 48 h
Aurora kinase B [3] = target: T2, Aurora kinase B (Homo sapiens, UniProt Q96GD4); assay: Inhibition of Aurora B (unknown origin) using HLRRASLG substrate
[4] = Cytotoxicity against human HL60 cells assessed as cell viability after 48 hrs by MTT assay; assay type: functional, cell-based; conditions: HL-60, 48 h
THP-1 [5] = assay: Cytotoxicity against human THP1 cells assessed as cell viability after 48 hrs by MTT assay; assay type: functional, cell-based
MV4-11 [6] = assay: Cytotoxicity against human MV4-11 cells assessed as cell viability after 48 hrs by MTT assay; assay type: functional, cell-based
[7] = Permeability coefficient of the compound at pH 7.4 by PAMPA-GIT assay; assay type: ADME; conditions: read-out: Peff
[8] = Ratio of solubility in PBS to solubility in DMSO; assay type: physicochemical
MOLM-13 [9] = assay: Cytotoxicity against human MOLM13 cells assessed as cell viability at 1 uM after 48 hrs by MTT assay; assay type: functional; conditions: MOLM-13, 48 h, read-out: Activity
THP-1 [10] = assay: Cytotoxicity against human THP1 cells assessed as cell viability at 1 uM after 48 hrs by MTT assay; assay type: functional; conditions: THP-1, 48 h, read-out: Activity
MV4-11 [11] = assay: Cytotoxicity against human MV4-11 cells assessed as cell viability at 1 uM after 48 hrs by MTT assay; assay type: functional; conditions: MV4-11, 48 h, read-out: Activity
Aurora kinase B [12] = target: T2, Aurora kinase B; assay: Inhibition of Aurora B (unknown origin) using HLRRASLG substrate at 1 uM
[13] = Cytotoxicity against human HL60 cells assessed as cell viability at 1 uM after 48 hrs by MTT assay; assay type: functional; conditions: HL-60, 48 h, read-out: Activity
[14] = target: Platelet-derived growth factor receptor alpha (Homo sapiens) (UniProt P16234); assay: Inhibition of PDGFRalpha (unknown origin) at 1 uM
[15] = target: Aurora kinase A (Homo sapiens) (UniProt O14965); assay: Inhibition of Aurora A (unknown origin) at 1 uM
[16] = target: Aurora kinase C (Homo sapiens) (UniProt Q9UQB9); assay: Inhibition of Aurora C (unknown origin) at 1 uM
[17] = target: Platelet-derived growth factor receptor beta (Homo sapiens) (UniProt P09619); assay: Inhibition of PDGFRbeta (unknown origin) at 1 uM
[18] = target: Receptor-type tyrosine-protein kinase FLT3 (Homo sapiens) (UniProt P36888); assay: Inhibition of FLT3 (unknown origin) using EAIYAAPFAKKK substrate at 1 uM

T2 sequence (Q96GD4 whole entry): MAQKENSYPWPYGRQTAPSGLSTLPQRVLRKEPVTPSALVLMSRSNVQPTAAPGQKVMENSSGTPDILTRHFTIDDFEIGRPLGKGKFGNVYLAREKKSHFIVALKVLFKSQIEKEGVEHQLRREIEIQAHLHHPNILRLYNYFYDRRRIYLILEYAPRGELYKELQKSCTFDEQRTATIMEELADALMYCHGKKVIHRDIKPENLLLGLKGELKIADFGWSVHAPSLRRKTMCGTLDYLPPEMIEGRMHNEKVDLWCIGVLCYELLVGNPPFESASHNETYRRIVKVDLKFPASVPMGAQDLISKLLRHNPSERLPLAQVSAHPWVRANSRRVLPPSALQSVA
Chain of Aurora kinase A (Homo sapiens) (O14965 whole entry): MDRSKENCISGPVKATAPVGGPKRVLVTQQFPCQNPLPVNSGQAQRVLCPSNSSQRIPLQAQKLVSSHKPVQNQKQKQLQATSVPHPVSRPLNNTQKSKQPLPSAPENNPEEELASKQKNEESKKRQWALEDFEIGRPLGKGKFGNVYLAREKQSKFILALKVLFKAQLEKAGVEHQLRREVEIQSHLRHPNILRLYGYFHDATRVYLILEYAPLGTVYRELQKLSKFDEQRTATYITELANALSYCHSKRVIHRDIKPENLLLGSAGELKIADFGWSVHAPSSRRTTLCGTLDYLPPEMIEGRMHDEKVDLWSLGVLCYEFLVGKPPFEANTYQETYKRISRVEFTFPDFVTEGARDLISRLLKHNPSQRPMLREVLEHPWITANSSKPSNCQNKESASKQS
Chain of Aurora kinase C (Homo sapiens) (Q9UQB9 whole entry): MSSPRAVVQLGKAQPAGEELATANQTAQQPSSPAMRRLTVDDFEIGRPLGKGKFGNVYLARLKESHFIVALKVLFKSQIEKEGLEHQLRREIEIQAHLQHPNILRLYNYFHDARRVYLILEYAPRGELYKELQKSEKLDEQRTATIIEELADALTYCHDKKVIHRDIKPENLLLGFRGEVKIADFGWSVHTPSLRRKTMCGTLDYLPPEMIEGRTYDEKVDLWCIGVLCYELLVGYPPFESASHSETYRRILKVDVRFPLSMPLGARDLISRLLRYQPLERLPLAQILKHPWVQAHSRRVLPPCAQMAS
Chain of Platelet-derived growth factor receptor alpha (Homo sapiens) (P16234 whole entry): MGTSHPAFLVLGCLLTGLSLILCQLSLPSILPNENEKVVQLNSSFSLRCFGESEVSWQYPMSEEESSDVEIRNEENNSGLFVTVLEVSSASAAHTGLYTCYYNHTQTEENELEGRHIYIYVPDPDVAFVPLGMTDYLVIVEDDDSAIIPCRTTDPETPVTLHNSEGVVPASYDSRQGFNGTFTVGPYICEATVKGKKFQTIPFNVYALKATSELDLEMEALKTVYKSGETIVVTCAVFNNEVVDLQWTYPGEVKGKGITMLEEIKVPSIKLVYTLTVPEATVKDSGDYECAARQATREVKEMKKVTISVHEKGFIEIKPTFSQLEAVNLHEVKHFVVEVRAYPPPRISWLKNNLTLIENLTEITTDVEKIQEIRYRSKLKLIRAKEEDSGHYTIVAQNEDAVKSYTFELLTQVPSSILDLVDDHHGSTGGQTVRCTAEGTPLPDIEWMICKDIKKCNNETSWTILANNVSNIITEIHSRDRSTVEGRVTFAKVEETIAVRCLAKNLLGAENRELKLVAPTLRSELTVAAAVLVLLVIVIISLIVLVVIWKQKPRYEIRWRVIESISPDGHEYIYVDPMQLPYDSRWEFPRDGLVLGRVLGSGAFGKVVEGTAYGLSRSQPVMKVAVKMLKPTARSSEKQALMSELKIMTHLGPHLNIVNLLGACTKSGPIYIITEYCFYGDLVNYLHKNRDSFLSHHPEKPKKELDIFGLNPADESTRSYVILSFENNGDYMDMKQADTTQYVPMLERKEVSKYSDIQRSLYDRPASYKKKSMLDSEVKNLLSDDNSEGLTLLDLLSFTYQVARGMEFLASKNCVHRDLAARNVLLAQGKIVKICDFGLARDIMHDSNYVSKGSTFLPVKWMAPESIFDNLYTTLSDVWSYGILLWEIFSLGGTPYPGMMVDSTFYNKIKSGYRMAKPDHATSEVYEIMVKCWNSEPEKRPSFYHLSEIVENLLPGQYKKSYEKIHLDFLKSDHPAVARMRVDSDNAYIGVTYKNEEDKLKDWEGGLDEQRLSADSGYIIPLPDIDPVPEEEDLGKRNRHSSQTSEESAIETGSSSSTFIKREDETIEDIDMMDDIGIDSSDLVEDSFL
Chain of Platelet-derived growth factor receptor beta (Homo sapiens) (P09619 whole entry): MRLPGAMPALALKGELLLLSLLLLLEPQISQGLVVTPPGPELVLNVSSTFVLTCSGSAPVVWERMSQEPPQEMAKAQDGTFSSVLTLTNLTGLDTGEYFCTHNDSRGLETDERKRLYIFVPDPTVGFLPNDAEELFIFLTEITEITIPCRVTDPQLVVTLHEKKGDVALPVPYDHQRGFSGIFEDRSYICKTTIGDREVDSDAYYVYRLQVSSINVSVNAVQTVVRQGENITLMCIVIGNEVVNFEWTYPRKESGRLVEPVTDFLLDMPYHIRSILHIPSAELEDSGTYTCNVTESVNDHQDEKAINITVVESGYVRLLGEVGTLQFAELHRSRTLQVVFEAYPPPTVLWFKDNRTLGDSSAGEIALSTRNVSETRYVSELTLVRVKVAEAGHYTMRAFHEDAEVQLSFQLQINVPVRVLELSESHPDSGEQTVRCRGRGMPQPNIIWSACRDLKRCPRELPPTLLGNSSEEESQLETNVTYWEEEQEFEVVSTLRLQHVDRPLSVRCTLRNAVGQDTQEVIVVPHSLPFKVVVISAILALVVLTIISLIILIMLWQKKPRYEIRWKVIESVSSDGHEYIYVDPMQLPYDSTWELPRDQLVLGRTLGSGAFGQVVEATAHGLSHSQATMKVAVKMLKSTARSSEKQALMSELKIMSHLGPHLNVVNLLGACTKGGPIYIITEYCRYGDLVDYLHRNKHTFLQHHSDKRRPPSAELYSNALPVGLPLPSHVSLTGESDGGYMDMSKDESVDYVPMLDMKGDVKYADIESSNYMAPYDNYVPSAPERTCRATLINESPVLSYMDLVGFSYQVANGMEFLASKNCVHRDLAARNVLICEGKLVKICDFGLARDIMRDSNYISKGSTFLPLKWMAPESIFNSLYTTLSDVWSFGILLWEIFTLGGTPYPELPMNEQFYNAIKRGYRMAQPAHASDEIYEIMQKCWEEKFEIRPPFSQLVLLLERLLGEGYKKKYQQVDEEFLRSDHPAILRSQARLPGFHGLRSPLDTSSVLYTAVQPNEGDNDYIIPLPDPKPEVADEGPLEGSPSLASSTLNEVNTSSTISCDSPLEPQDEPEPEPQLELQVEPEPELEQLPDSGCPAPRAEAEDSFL

IC50 [1] | IC50 (Aurora kinase B [3]) | Papp [7] | Ratio [8] | inhibition (Aurora kinase B [12]) | inhibition [14] | inhibition [15] | inhibition [16] | inhibition [17] | inhibition [18] | SMILES | IC50 (MOLM-13 [2]) | IC50 [4] | IC50 (THP-1 [5]; Homo sapiens, THP-1, 48 h) | IC50 (MV4-11 [6]; Homo sapiens, MV4-11, 48 h) | viability at 1 µM (MOLM-13 [9]) | viability at 1 µM (THP-1 [10]) | viability at 1 µM (MV4-11 [11]) | viability at 1 µM [13] | IC50 (THP-1 [5]; thp-1) | IC50 (MV4-11 [6]; mv4-11)
> 1000 nM | 21.5 nM |  |  |  |  |  |  |  |  | COc1ccc(C(=O)NC(=O)Nc2ccc3c(c2)NC(=O)/C3=C/c2cccs2)cc1 | > 500 nM | 300 nM | 375 nM | 292 nM |  |  |  |  |  | 
 |  | 0.23 ×10⁻⁶ cm/s | 0.32 |  |  |  |  |  |  | COc1ccc(C(=O)NC(=O)Nc2ccc3c(c2)NC(=O)/C3=C\c2[nH]c(C)c(C(=O)O)c2C)cc1 | 9 nM | 15.8 nM | 78.4 nM | 12 nM |  |  |  |  |  | 
> 1000 nM |  |  |  | 29% |  |  |  |  |  | COc1ccc(C(=O)NC(=O)Nc2ccc3c(c2)NC(=O)/C3=C/c2ccccn2)cc1 | > 500 nM | > 500 nM | > 500 nM | > 500 nM | 62% | 85% | 60% | 80% |  | 
 |  | 2.46 ×10⁻⁶ cm/s | 0.58 |  |  |  |  |  |  | COc1ccc(C(=O)NC(=O)Nc2cc3c(cc2F)/C(=C/c2[nH]c(C)c(C(=O)O)c2C)C(=O)N3)cc1 | 25.3 nM | 32.2 nM | 81.2 nM | 34.6 nM |  |  |  |  |  | 
 | > 1000 nM |  |  |  |  |  |  |  |  | COc1ccc(C(=O)NC(=O)Nc2ccc3c(c2)NC(=O)/C3=C\c2[nH]c(C)c(-c3ccccc3)c2C)cc1 | > 500 nM | > 500 nM | > 500 nM | > 500 nM | 51% | 73% | 51% | 65% |  | 
 |  |  | 0.57 |  |  |  |  |  |  | COc1ccc(C(=O)NC(=O)Nc2ccc3c(c2)NC(=O)/C3=C\c2[nH]c(C)c(CCC(=O)O)c2C)cc1 | 5.2 nM | 6.4 nM | 52.8 nM | 5.3 nM |  |  |  |  |  | 
> 1000 nM | > 1000 nM |  |  |  |  |  |  |  |  | COc1ccc(C(=O)NC(=O)Nc2ccc3c(c2)NC(=O)/C3=C\c2ccc(C(=O)O)[nH]2)cc1 | > 500 nM | > 500 nM | > 500 nM | > 500 nM | 55% | 65% | 62% | 65% |  | 
> 1000 nM | > 1000 nM |  |  |  |  |  |  |  |  | CCOC(=O)c1c(C)[nH]c(/C=C2\C(=O)Nc3cc(NC(=O)NC(=O)c4ccc(OC)cc4F)ccc32)c1C | 9.8 nM | 13 nM | 74 nM | 11.3 nM |  |  |  |  |  | 
 |  | 0.67 ×10⁻⁶ cm/s | 0.37 | 94% | 30% | 11% | 17% | 35% |  | COc1ccc(C(=O)NC(=O)Nc2ccc3c(c2)NC(=O)/C3=C\c2ccc[nH]2)cc1 | 18.1 nM | 29.5 nM | 68.4 nM | 29.3 nM |  |  |  |  |  | 
 |  |  |  | 9% |  |  |  |  | 19% | COc1ccc(C(=O)NC(=O)Nc2ccc3c(c2)NC(=O)/C3=C/c2ccc(Cl)c(Cl)c2)cc1 | > 500 nM | > 500 nM | > 500 nM | > 500 nM | 69% | 68% | 71% | 63% |  | 
 |  | 2.49 ×10⁻⁶ cm/s | 0.58 |  |  |  |  |  |  | COc1ccc(C(=O)NC(=O)Nc2ccc3c(c2)NC(=O)/C3=C\c2[nH]c(C)c(C(=O)O)c2C)c(F)c1 | 5.2 nM | 6.4 nM | 79.5 nM | 5.3 nM |  |  |  |  |  | 
 |  |  |  | 73% |  |  |  |  | 21% | COc1ccc(C(=O)NC(=O)Nc2ccc3c(c2)NC(=O)/C3=C/c2cccc(C(=O)O)c2)cc1 | 291 nM | > 500 nM | > 500 nM | > 500 nM | 53% | 71% | 57% | 59% |  | 

SMILES | IC50 [1] | IC50 (Aurora kinase B [3]) | Papp [7] | Ratio [8] | inhibition (Aurora kinase B [12]) | inhibition [14] | inhibition [15] | inhibition [16] | inhibition [17] | inhibition [18] | IC50 (MOLM-13 [2]) | IC50 [4] | IC50 (THP-1 [5]; Homo sapiens, THP-1, 48 h) | IC50 (MV4-11 [6]; Homo sapiens, MV4-11, 48 h) | viability at 1 µM (MOLM-13 [9]) | viability at 1 µM (THP-1 [10]) | viability at 1 µM (MV4-11 [11]) | viability at 1 µM [13] | IC50 (THP-1 [5]; thp-1) | IC50 (MV4-11 [6]; mv4-11)
COc1ccc(C(=O)NC(=O)Nc2ccc3c(c2)NC(=O)/C3=C\c2[nH]c(C)c(C(=O)NCCN3CCCC3)c2C)c(F)c1.CS(=O)(=O)O |  |  |  | 0.97 |  |  |  |  |  |  |  |  |  |  |  |  |  |  | 32.2 nM | 2 nM
